For this assay, the system named is L1210. Briefly: Growth inhibition of L1210 cells in culture. It counts as functional, cell-based. The conditions noted are these: Mus musculus.

Take `C#CCN(Cc1ccc2nc(C)nc(S)c2c1)c1ccc(C(=O)NC(CCC(=O)O)C(=O)O)cc1` (stereo not given): 8 µM corresponded to half-maximal inhibition (IC50). This counts as single-digit micromolar.

`CCN(Cc1ccc2ncnc(SC)c2c1)c1ccc(C(=O)NC(CCC(=O)O)C(=O)O)cc1` (stereo not given) came in with an IC50 of 15 µM. `C#CCN(Cc1ccc2ncnc(S)c2c1)c1ccc(C(=O)NC(CCC(=O)O)C(=O)O)cc1` (stereo not given) came in with an IC50 of 7.4 µM.

Compound `C#CCN(Cc1ccc2nc(N)nc(S)c2c1)c1ccc(C(=O)NC(CCC(=O)O)C(=O)O)cc1` (stereo not given) gave an IC50 of 18 µM. Next, `CCN(Cc1ccc2ncnc(S)c2c1)c1ccc(C(=O)NC(CCC(=O)O)C(=O)O)cc1` (stereo not given): 31 µM.

For the origin of these results see ChEMBL document CHEMBL1125648, “Quinazoline antifolates inhibiting thymidylate synthase: 4-thio-substituted analogues” (J Med Chem, 1991).
